Reference: patent US9409978B2, “Modulation of midbody derivatives” (University of Massachusetts, priority 2011, dated 2016)
“Also recorded” adds a separate entry of the source.

Legend:
hESCs (H1, H9) = experiment: Lysosome inhibition, MBd quantification in hESCs; settings: chloroquine treatment
Excerpt: Quantification was based on the markers that: 1) labeled both mitotic MBs and MBds (MKLP1, mgcRACGAP, or Cep55); 2) labeled MBs differently than MBds (α-tubulin or Aurora B); 3) defined cell boundaries (α-tubulin or ZO-1). Because Cep55, MKLP1, and mgcRACGAP also label centrioles and spindle midzones, cells were co-stained with centrosome antibody (e.g. 5051), and a size threshold for MB/MBds (1 μm) was introduced to exclude non-MBd structures. Structures with MB-specific or non-MB/MBd labeling were excluded from MBd counts. Cell counts: For hESCs, 5-11 colonies were imaged from triplicates in each experiment. For other cell types, random fields were imaged until n>500 cells. Each dividing cell was considered one cell.
Cells at 70% confluency were incubated with chloroquine (200 μM/PBS; Sigma), E64d+ pepstatin A (E64d/PepA) (10 μg ml^−1/DMSO each; Sigma) (Klionsky et al., 2008, Autophagy, 4:151-175; Komatsu et al., 2007, Cell, 131:1149-63) or solvents alone (controls) for 22 hours before fixation. Lysosome inhibition was confirmed and visualized after 12-hour DQ-Red BSA (10 μg ml^−1; Invitrogen) incubation.

MCF-7 cancer cells = experiment: Lysosome inhibition, MBd quantification in MCF-7 cells; type: cell-based; settings: lysosomal inhibition 22 hours
Excerpt: (§1) Each dividing cell was considered one cell.

HeLa cells = experiment: Lysosome inhibition, MBd quantification in HeLa cells; type: cell-based; settings: lysosomal inhibition 22 hours
Excerpt: as §1

hRPE-1 cells = experiment: Lysosome inhibition, MBd quantification in hRPE-1 cells; type: cell-based; settings: lysosomal inhibition 22 hours
Excerpt: as §1

SMILES: CCN(CC)CCCC(C)Nc1ccnc2cc(Cl)ccc12 (stereo not shown) [chloroquine]
- effect of treatment on the cells (differentiation, cell death) (hESCs (H1, H9)): caused differentiation and cell death
- percent of MBd+ cells (MBd levels) (MCF-7 cancer cells): largely unaffected; also recorded: no detectable effect
- percent of MBds in lysosomes (MCF-7 cancer cells): largely unaffected
- percent of MBd+ cells (MBd levels) (HeLa cells): modest increase; also recorded: increase the percent of MBd+ cells
- presence of MBds in lysosomes (HeLa cells): presence of MBds in lysosomes
- percent of MBds found within lysosomes (hRPE-1 cells; LAMP2 lysosome marker): elevated; also recorded: presence of MBds in lysosomes
- percent of MBd+ cells (MBd levels) (hRPE-1 cells; chloroquine 200 μM or E64d/PepA 10 μg/ml each): elevated; also recorded: increase the percent of MBd+ cells
